Legend:
[1] = target: AP2-associated protein kinase 1 (Homo sapiens) (UniProt Q2M2I8); settings: Compound concentration 1000.0 nM
[2] = target: Bone morphogenetic protein receptor type-1A (Homo sapiens) (UniProt P36894); settings: Compound concentration 1000.0 nM
[3] = tested on: Serine/threonine-protein kinase B-raf (Homo sapiens), P15056 [V600E]; settings: Compound concentration 1000.0 nM
[4] = target: Mitotic checkpoint serine/threonine-protein kinase BUB1 (Homo sapiens) (UniProt O43683); settings: Compound concentration 1000.0 nM
[5] = target: Calcium/calmodulin-dependent protein kinase type 1G (Homo sapiens) (UniProt Q96NX5); settings: Compound concentration 1000.0 nM
[6] = target: Cyclin-dependent kinase 8 (Homo sapiens) (UniProt P49336); settings: Compound concentration 1000.0 nM
[7] = target: Cyclin-dependent kinase-like 1 (Homo sapiens) (UniProt Q00532); settings: Compound concentration 1000.0 nM
[8] = target: Cyclin-dependent kinase-like 2 (Homo sapiens) (UniProt Q92772); settings: Compound concentration 1000.0 nM
Cyclin-dependent kinase-like 2 (Homo sapiens), sequence (Q92772 whole entry): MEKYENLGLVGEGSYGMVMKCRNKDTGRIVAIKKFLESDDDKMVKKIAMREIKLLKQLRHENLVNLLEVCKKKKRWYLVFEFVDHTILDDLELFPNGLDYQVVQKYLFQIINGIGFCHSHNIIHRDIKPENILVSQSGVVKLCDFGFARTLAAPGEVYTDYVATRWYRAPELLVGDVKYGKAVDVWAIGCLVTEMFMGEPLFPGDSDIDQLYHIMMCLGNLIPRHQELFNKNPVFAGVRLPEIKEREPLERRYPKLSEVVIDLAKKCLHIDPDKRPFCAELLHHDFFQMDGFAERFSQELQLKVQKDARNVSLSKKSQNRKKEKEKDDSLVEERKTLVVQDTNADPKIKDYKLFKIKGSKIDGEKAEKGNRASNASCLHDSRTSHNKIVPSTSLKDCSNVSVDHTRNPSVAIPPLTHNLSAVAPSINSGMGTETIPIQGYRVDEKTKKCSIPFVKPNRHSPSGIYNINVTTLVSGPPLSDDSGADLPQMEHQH

[9] = target: Serine/threonine-protein kinase Chk1 (Homo sapiens) (UniProt O14757); settings: Compound concentration 1000.0 nM
[10] = target: Death-associated protein kinase 3 (Homo sapiens) (UniProt O43293); settings: Compound concentration 1000.0 nM
[11] = target: Serine/threonine-protein kinase MRCK gamma (Homo sapiens) (UniProt Q6DT37); settings: Compound concentration 1000.0 nM
[12] = target: Ephrin type-A receptor 4 (Homo sapiens) (UniProt P54764); settings: Compound concentration 1000.0 nM
[13] = target: Receptor tyrosine-protein kinase erbB-4 (Homo sapiens) (UniProt Q15303); settings: Compound concentration 1000.0 nM
[14] = target: Mitogen-activated protein kinase 15 (Homo sapiens) (UniProt Q8TD08); settings: Compound concentration 1000.0 nM
[15] = target: Fibroblast growth factor receptor 2 (Homo sapiens) (UniProt P21802); settings: Compound concentration 1000.0 nM
[16] = target: Interleukin-1 receptor-associated kinase 1 (Homo sapiens) (UniProt P51617); settings: Compound concentration 1000.0 nM
[17] = target: Mitogen-activated protein kinase 9 (Homo sapiens) (UniProt P45984); settings: Compound concentration 1000.0 nM
[18] = target: Dual specificity mitogen-activated protein kinase kinase 4 (Homo sapiens) (UniProt P45985); settings: Compound concentration 1000.0 nM
[19] = target: Tyrosine-protein kinase Mer (Homo sapiens) (UniProt Q12866); settings: Compound concentration 1000.0 nM
[20] = target: Serine/threonine-protein kinase 24 (Homo sapiens) (UniProt Q9Y6E0); settings: Compound concentration 1000.0 nM
[21] = target: Serine/threonine-protein kinase 26 (Homo sapiens) (UniProt Q9P289); settings: Compound concentration 1000.0 nM
[22] = target: Myosin-IIIb (Homo sapiens) (UniProt Q8WXR4); settings: Compound concentration 1000.0 nM
[23] = target: Serine/threonine-protein kinase OSR1 (Homo sapiens) (UniProt O95747); settings: Compound concentration 1000.0 nM
[24] = target: Mitogen-activated protein kinase 11 (Homo sapiens) (UniProt Q15759); settings: Compound concentration 1000.0 nM
[25] = target: Cyclin-dependent kinase 18 (Homo sapiens) (UniProt Q07002); settings: Compound concentration 1000.0 nM
[26] = target: Phosphorylase b kinase regulatory subunit alpha, liver isoform (Homo sapiens) (UniProt P46019); settings: Compound concentration 1000.0 nM
Phosphorylase b kinase regulatory subunit alpha, liver isoform (Homo sapiens), sequence (P46019 whole entry, canonical isoform): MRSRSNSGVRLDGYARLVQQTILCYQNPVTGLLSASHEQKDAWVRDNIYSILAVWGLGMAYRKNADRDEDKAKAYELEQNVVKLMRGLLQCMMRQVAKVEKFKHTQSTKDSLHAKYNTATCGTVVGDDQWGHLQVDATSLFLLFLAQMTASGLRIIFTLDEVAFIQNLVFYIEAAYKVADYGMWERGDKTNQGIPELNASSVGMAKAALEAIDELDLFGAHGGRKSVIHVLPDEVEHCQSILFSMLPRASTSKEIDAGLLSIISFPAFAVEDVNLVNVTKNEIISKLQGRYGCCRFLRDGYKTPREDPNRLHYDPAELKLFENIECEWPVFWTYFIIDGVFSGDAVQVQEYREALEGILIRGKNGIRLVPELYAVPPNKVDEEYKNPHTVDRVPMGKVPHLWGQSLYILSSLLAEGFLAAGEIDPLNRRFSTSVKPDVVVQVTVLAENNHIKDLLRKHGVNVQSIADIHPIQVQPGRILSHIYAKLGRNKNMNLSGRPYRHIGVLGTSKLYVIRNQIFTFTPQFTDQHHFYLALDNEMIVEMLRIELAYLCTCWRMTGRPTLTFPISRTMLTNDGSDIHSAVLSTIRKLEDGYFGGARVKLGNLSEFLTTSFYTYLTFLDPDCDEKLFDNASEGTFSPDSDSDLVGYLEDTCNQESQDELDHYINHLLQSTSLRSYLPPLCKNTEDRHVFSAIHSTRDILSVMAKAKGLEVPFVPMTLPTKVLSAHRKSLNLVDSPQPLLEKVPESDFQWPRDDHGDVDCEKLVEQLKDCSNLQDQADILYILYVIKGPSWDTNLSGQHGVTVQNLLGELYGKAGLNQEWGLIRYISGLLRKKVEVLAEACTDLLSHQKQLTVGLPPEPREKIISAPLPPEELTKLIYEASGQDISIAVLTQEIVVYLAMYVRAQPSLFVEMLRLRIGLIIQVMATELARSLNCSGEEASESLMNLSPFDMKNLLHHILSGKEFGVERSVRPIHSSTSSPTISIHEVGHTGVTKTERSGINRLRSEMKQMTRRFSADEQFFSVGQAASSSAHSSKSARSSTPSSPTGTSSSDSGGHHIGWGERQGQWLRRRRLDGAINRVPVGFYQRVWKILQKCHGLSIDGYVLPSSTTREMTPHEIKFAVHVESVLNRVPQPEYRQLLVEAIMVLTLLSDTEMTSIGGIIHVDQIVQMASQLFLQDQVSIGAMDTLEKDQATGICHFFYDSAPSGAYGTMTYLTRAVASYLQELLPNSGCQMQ

[27] = tested on: Phosphatidylinositol 4,5-bisphosphate 3-kinase catalytic subunit alpha isoform (Homo sapiens), P42336 [H1047L]; settings: Compound concentration 1000.0 nM
[28] = target: Phosphatidylinositol 4,5-bisphosphate 3-kinase catalytic subunit delta isoform (Homo sapiens) (UniProt O00329); settings: Compound concentration 1000.0 nM
[29] = target: Serine/threonine-protein kinase pim-1 (Homo sapiens) (UniProt P11309); settings: Compound concentration 1000.0 nM
[30] = target: Serine/threonine-protein kinase N2 (Homo sapiens) (UniProt Q16513); settings: Compound concentration 1000.0 nM
[31] = target: Serine/threonine-protein kinase PknB (Mycobacterium tuberculosis) (UniProt P9WI81); settings: Compound concentration 1000.0 nM
[32] = target: Serine/threonine-protein kinase D1 (Homo sapiens) (UniProt Q15139); settings: Compound concentration 1000.0 nM
[33] = target: Serine/threonine-protein kinase D3 (Homo sapiens) (UniProt O94806); settings: Compound concentration 1000.0 nM
[34] = target: RAF proto-oncogene serine/threonine-protein kinase (Homo sapiens) (UniProt P04049); settings: Compound concentration 1000.0 nM
[35] = target: Dual serine/threonine and tyrosine protein kinase (Homo sapiens) (UniProt Q6XUX3); settings: Compound concentration 1000.0 nM
Dual serine/threonine and tyrosine protein kinase (Homo sapiens), sequence (Q6XUX3 whole entry): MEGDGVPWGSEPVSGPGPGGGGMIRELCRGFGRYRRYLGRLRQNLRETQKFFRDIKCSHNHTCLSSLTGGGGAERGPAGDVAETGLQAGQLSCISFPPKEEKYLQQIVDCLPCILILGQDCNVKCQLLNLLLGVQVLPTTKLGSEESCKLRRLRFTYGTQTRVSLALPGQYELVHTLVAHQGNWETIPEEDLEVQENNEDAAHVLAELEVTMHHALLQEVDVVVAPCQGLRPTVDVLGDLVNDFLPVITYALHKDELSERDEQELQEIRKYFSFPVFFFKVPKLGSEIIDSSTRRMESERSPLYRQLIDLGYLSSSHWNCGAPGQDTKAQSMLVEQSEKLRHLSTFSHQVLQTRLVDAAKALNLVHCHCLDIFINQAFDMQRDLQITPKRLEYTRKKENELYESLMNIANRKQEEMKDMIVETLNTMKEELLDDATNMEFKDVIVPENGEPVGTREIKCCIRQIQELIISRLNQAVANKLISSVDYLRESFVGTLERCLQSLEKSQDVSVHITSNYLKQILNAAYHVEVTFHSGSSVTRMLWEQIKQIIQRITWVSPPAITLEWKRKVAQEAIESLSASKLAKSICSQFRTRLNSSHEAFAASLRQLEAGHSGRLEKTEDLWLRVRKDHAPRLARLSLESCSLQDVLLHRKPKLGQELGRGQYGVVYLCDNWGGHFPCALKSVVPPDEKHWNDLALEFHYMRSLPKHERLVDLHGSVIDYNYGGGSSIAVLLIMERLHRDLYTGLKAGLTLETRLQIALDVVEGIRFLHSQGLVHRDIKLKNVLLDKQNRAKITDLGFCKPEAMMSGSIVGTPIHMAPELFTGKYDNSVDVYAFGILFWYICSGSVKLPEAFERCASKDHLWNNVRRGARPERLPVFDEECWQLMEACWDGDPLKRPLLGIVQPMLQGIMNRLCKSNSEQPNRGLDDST

[36] = target: Ribosomal protein S6 kinase alpha-3 (Homo sapiens) (UniProt P51812); settings: Compound concentration 1000.0 nM
[37] = target: Ribosomal protein S6 kinase beta-1 (Homo sapiens) (UniProt P23443); settings: Compound concentration 1000.0 nM
[38] = target: Uncharacterized serine/threonine-protein kinase SBK3 (Homo sapiens) (UniProt P0C264); settings: Compound concentration 1000.0 nM
[39] = target: Serine/threonine-protein kinase 36 (Homo sapiens) (UniProt Q9NRP7); settings: Compound concentration 1000.0 nM
[40] = target: Dual specificity testis-specific protein kinase 1 (Homo sapiens) (UniProt Q15569); settings: Compound concentration 1000.0 nM
[41] = target: Angiopoietin-1 receptor (Homo sapiens) (UniProt Q02763); settings: Compound concentration 1000.0 nM
[42] = target: NT-3 growth factor receptor (Homo sapiens) (UniProt Q16288); settings: Compound concentration 1000.0 nM
NT-3 growth factor receptor (Homo sapiens), sequence (Q16288 32-839 limits assumed): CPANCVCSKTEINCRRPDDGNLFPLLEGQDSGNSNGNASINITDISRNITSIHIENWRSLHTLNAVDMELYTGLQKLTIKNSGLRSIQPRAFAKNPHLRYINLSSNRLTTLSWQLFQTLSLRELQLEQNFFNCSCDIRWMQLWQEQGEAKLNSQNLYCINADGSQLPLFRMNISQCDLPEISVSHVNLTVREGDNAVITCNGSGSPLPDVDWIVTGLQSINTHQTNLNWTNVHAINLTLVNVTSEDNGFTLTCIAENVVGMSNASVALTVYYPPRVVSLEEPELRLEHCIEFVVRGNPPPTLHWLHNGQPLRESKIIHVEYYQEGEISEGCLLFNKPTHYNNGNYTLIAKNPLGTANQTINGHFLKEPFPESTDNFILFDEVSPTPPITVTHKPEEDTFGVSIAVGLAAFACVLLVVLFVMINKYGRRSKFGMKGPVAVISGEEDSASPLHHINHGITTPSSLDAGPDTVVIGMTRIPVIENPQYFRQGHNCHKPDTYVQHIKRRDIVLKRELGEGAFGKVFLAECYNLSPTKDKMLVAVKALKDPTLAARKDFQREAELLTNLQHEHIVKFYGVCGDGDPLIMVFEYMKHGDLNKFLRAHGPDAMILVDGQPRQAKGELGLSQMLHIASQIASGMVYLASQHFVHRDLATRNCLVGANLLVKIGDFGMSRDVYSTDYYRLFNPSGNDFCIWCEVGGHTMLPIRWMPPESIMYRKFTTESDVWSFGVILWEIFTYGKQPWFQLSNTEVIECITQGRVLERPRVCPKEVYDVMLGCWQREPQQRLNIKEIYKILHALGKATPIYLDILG

[43] = target: Tyrosine-protein kinase receptor TYRO3 (Homo sapiens) (UniProt Q06418); settings: Compound concentration 1000.0 nM
[44] = target: Alpha-2C adrenergic receptor (Homo sapiens) (UniProt P18825); settings: Compound concentration 10.0 uM
[45] = target: Muscarinic acetylcholine receptor M1 (Homo sapiens) (UniProt P11229); settings: Compound concentration 10.0 uM
Muscarinic acetylcholine receptor M1 (Homo sapiens), sequence (P11229 whole entry): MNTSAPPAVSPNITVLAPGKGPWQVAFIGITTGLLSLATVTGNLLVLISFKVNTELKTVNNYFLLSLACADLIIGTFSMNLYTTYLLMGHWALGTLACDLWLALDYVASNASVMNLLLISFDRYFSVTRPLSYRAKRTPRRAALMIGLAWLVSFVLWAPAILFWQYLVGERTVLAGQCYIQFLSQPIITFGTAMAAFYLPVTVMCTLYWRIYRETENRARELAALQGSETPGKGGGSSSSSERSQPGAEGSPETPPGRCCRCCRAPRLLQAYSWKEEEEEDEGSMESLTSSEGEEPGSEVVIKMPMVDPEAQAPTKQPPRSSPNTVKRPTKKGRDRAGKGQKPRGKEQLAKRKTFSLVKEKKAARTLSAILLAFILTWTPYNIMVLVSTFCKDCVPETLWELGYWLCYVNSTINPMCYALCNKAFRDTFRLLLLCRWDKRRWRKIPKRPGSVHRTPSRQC

AP2-associated protein kinase 1 (Homo sapiens), sequence (Q2M2I8 whole entry, looked up): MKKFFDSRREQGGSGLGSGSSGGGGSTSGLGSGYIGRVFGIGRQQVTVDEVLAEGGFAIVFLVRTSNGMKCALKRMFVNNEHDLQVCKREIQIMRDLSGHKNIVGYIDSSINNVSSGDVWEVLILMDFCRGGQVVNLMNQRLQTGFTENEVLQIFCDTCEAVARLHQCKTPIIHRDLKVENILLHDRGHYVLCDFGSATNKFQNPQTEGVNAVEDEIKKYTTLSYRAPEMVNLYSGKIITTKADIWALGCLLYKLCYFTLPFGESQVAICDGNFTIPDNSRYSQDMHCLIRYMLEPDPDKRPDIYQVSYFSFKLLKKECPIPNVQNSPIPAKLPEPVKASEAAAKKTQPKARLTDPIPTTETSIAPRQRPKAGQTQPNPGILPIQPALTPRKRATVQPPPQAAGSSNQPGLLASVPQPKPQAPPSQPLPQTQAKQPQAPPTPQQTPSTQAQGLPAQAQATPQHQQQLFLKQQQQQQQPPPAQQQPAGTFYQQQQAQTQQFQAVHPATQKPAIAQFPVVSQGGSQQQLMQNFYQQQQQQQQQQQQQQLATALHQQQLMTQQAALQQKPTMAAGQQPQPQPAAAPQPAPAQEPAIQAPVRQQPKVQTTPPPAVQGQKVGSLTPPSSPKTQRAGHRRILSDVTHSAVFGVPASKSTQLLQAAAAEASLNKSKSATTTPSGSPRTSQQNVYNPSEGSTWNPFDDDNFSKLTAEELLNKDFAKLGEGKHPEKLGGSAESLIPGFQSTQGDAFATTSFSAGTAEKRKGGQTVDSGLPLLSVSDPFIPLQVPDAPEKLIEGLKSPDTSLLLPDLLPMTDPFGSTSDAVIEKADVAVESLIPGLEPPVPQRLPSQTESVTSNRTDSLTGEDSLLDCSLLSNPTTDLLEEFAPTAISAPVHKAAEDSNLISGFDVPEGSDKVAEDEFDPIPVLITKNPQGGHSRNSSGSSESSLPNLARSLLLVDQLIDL

Cc1c(NC(=O)c2cc(C(N)=O)nc3cc(F)ccc23)c(C(F)(F)F)nn1Cc1ccc(C#N)cc1 [BAY-876]
inactive: residual activity [1] 79% | residual activity [2] 84% | residual activity [3] 90% | residual activity [4] 88% | residual activity [5] 75% | residual activity [6] 56% | residual activity [7] 82% | residual activity [8] 92% | residual activity [9] 75% | residual activity [10] 89% | residual activity [11] 91% | residual activity [12] 99% | residual activity [13] 95% | residual activity [14] 100% | residual activity [15] 88% | residual activity [16] 70% | residual activity [17] 77% | residual activity [18] 86% | residual activity [19] 100% | residual activity [20] 78% | residual activity [21] 95% | residual activity [22] 100% | residual activity [23] 67% | residual activity [24] 88% | residual activity [25] 100% | residual activity [26] 94% | residual activity [27] 88% | residual activity [28] 66% | residual activity [29] 86% | residual activity [30] 81% | residual activity [31] 78% | residual activity [32] 100% | residual activity [33] 74% | residual activity [34] 86% | residual activity [35] 78% | residual activity [36] 87% | residual activity [37] 80% | residual activity [38] 100% | residual activity [39] 100% | residual activity [40] 93% | residual activity [41] 92% | residual activity [42] 69% | residual activity [43] 81% | inhibition [44] -0.745% | inhibition [45] 28.2%

Cc1c(NC(=O)c2cc(C(N)=O)nc3cc(F)ccc23)c(C(F)(F)F)nn1Cc1ccc(C(C)(C)C)cc1 [BAY-588]
inactive: residual activity [1] 83% | residual activity [2] 100% | residual activity [3] 98% | residual activity [4] 100% | residual activity [5] 100% | residual activity [6] 100% | residual activity [7] 100% | residual activity [8] 100% | residual activity [9] 100% | residual activity [10] 76% | residual activity [11] 91% | residual activity [12] 100% | residual activity [13] 98% | residual activity [14] 56% | residual activity [15] 100% | residual activity [16] 100% | residual activity [17] 100% | residual activity [18] 100% | residual activity [19] 86% | residual activity [20] 100% | residual activity [21] 100% | residual activity [22] 100% | residual activity [23] 100% | residual activity [24] 91% | residual activity [25] 88% | residual activity [26] 83% | residual activity [27] 100% | residual activity [28] 100% | residual activity [29] 100% | residual activity [30] 100% | residual activity [31] 95% | residual activity [32] 100% | residual activity [33] 100% | residual activity [34] 88% | residual activity [35] 89% | residual activity [36] 100% | residual activity [37] 100% | residual activity [38] 100% | residual activity [39] 97% | residual activity [40] 100% | residual activity [41] 94% | residual activity [42] 100% | residual activity [43] 100% | inhibition [44] 2.11% | inhibition [45] 37.2%
